Results on 10 molecules are retold here after patent US20230405316A1, “COMPOSITIONS, SYSTEMS, AND METHODS FOR TREATING CANCER USING TUMOR TREATING FIELDS AND VEGF INHIBITORS” (Novocure Gmbh, priority 2022, published 2023).

Broadly, the IC50 is the point on the concentration scale where inhibition reaches its midpoint.

In one assay the target is VEGFR-2 (Homo sapiens, UniProt P35968). Particulars: cited from earlier work.
A further assay concerns the target VEGFR-3 (Homo sapiens, UniProt P35916). The following applies: cited from earlier work.
Assay [1] has as its system ovarian carcinoma cell line (A2780). Nature of the assay: Concomitant therapy with TTFields and lenvatinib, cell count and apoptosis. In kind it is cell-based. Particulars: A2780 cells, 4 μM Lenvatinib combined with TTFields vs either therapy alone. The procedure:
FIG. 5 contains photomicrographs of A2780 cells following TTFields treatment alone, treatment with 4 μM Lenvatinib, and concomitant therapy with both TTFields and 4 μM Lenvatinib.
In particular, the combinatorial effect of TTFields and lenvatinib was examined in an ovarian carcinoma cell line (A2780).

The next assay concerns the target VEGFR-1 (Homo sapiens, UniProt P17948). The following applies: cited from earlier work.

Each structure is given as a SMILES string. Where a name gives a salt, the structure may show the parent alone. Where only a bound is given, the exact number is not on record here.

Chain of VEGFR-3 (P35916 25-1363, species assumed): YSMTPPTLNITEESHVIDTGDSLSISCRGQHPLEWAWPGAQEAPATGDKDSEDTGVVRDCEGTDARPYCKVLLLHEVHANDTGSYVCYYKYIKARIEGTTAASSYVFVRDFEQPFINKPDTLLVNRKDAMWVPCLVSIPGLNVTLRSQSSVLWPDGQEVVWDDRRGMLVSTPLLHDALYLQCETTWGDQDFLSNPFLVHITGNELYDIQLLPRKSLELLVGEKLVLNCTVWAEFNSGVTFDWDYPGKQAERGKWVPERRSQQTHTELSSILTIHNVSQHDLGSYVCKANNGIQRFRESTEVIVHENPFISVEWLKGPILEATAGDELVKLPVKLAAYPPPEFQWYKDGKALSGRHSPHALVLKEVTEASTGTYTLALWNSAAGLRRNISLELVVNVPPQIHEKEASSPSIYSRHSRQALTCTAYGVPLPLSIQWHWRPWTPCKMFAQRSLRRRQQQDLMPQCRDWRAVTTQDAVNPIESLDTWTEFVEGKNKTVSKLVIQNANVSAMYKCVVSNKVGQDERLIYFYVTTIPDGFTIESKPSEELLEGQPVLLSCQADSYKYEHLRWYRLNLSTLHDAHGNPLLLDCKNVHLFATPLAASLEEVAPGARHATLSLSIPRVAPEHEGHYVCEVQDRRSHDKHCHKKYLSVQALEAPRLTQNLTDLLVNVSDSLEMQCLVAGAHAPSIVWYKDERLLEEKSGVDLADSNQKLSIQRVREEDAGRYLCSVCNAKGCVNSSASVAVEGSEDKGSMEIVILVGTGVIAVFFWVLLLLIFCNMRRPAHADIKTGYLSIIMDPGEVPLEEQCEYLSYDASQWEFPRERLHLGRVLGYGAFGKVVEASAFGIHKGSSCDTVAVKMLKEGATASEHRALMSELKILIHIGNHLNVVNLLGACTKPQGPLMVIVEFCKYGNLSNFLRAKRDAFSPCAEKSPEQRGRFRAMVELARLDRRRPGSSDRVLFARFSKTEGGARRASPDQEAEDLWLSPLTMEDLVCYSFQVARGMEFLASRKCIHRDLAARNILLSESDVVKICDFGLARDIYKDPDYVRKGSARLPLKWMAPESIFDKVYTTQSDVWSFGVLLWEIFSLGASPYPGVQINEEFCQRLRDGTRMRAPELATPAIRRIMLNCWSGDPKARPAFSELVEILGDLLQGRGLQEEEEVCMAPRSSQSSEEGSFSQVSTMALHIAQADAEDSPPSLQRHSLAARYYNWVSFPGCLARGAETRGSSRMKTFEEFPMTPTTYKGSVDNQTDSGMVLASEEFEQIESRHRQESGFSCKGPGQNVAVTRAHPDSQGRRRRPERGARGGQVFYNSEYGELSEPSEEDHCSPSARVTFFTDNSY
Chain of VEGFR-2 (P35968 20-1356, species assumed): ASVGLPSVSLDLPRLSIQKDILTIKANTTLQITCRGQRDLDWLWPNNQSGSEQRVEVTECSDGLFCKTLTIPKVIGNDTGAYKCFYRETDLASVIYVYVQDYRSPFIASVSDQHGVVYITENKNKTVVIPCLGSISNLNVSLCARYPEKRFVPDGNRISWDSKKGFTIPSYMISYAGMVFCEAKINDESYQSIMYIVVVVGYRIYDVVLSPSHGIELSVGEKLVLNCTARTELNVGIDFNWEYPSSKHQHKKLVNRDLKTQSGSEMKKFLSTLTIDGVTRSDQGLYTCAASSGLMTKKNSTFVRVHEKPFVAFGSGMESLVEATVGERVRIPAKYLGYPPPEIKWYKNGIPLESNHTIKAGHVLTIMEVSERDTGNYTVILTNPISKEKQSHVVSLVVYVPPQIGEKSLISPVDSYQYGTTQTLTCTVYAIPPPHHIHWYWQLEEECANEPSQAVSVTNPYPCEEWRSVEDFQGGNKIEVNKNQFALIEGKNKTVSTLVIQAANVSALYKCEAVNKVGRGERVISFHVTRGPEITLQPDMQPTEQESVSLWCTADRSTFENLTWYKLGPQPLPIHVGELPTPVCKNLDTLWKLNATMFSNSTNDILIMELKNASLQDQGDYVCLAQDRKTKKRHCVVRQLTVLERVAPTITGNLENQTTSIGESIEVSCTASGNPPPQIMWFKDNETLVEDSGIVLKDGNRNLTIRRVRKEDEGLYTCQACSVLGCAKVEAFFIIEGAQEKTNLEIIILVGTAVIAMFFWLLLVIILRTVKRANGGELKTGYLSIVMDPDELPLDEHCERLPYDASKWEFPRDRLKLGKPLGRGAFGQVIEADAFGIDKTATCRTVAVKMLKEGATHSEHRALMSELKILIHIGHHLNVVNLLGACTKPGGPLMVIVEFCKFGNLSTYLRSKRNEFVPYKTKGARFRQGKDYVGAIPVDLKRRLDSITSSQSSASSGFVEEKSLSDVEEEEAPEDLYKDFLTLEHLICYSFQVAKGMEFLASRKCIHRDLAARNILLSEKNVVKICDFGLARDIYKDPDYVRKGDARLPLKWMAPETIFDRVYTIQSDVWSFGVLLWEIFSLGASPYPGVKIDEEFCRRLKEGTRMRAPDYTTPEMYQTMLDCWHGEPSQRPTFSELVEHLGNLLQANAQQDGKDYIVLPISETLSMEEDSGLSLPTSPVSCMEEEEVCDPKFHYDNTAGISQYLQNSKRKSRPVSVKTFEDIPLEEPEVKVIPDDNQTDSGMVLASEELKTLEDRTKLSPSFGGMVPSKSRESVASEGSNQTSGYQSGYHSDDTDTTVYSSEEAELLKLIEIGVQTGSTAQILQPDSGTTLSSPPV
Chain of VEGFR-1 (P17948 27-1338, species assumed): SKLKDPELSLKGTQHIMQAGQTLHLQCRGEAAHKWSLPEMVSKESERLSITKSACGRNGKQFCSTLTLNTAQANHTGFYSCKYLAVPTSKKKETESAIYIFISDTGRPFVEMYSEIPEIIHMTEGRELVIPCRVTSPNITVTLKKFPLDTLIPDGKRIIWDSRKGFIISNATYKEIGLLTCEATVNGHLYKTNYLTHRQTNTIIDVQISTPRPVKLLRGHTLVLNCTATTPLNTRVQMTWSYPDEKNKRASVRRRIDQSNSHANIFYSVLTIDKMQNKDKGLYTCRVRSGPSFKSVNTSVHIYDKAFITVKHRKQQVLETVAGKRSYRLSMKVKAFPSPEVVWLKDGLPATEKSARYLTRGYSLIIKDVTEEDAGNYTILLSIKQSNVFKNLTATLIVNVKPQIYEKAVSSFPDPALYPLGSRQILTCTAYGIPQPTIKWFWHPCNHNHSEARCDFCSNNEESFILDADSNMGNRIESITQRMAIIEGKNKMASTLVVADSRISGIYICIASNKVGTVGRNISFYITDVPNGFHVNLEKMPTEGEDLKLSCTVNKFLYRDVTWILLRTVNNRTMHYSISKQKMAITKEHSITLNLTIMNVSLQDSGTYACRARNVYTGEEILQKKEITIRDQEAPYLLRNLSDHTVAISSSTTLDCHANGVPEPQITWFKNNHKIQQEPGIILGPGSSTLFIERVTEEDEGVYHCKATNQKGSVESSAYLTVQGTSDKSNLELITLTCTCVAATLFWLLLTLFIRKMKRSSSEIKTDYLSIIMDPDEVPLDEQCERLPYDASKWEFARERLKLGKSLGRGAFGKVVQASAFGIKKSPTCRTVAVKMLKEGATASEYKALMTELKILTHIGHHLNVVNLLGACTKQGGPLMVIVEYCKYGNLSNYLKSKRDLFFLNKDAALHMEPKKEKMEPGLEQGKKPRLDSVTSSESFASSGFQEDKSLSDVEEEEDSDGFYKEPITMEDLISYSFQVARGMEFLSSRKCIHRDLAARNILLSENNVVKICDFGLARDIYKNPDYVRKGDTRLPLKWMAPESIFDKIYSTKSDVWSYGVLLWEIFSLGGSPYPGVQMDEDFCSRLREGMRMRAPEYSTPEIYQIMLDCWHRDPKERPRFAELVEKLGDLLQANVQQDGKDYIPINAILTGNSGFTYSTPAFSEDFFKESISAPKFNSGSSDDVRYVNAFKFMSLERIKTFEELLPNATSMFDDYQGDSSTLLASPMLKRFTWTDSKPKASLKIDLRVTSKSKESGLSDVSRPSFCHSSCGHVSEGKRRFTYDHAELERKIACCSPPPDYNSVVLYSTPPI

In the case of `Cc1cc(F)c(Nc2ncnc3cc(OCc4ccccc4)ccc23)cc1O` [ZM 323881 HCl], at VEGFR-2, the IC50 was under 2 nM.
As to `COc1cc2nccc(Oc3ccc(NC(=O)Nc4ccc(F)cc4F)c(F)c3)c2cc1OC` [Ki8751], at VEGFR-2, the half-maximal inhibitory concentration (IC50) was 0.9 nM.
Regarding `COc1cc2nccc(Oc3ccc(NC(=O)C4(C(=O)Nc5ccc(F)cc5)CC4)cc3)c2cc1OC` [Cabozantinib], the “IC50 for VEGFR-3” value at VEGFR-3 was “Does not bind”.
For `COc1cc2nccc(Oc3ccc(NC(=O)NC4CC4)c(Cl)c3)c2cc1C(N)=O` [Lenvatinib], in assay [1], the “effect of concomitant therapy on apoptosis” value is on record as “enhanced effect over either therapy alone” and the “effect of concomitant therapy on cell count” value is listed as “enhanced effect over either therapy alone”.
For `Cn1cc(-c2ccc3c(c2)ncn3-c2cc(NS(=O)(=O)C3CC3)cc(-c3ccc(F)cc3F)c2)cn1` [ODM-203], the figures for the concentration for half-maximal inhibition (IC50) at VEGFR-3, at VEGFR-2 and at VEGFR-1 were 5 nM, 9 nM and 26 nM, respectively.
Turning to `COc1cc2c(cc1F)C(c1ccccc1Cl)=Nc1c(n[nH]c1C)N2` [R1530], at VEGFR-2, the IC50 is 10 nM.
Regarding `Cc1[nH]c(/C=C2\C(=O)Nc3ccc(F)cc32)c(C)c1C(=O)NC[C@H](O)CN1CCOCC1` [SU14813], the IC50 is 50 nM on VEGFR-2 and 2 nM at VEGFR-1.
For the molecule `CNC(=O)c1cc2c(Oc3ccc(NC(=O)C4(C(=O)Nc5ccc(F)cc5)CC4)cc3)ccnc2cc1OC` [XL092], the concentration for half-maximal inhibition (IC50) at VEGFR-2 is 1.6 nM.
On to `COc1cc2c(Oc3ccc4[nH]c(C)cc4c3F)ccnc2cc1OCC1(N)CC1` [Anlotinib], for which the “IC50 for VEGFR-3” value at VEGFR-3 is “Does not bind”. For the same molecule, the IC50 at VEGFR-2 is under 1 nM. For the same molecule, the “IC50 for VEGFR-1” value at VEGFR-1 is listed as “Does not bind”.
Turning to `Cc1c(C(=O)Nc2ccc(Oc3ccnc4cc(OCC(C)(C)O)ccc34)c(F)c2)c(=O)n(-c2ccccc2)n1C` [Ningetinib], the IC50 on VEGFR-2 was 1.9 nM.
